Measurements from PubChem BioAssay AID256 (DTP/NCI, 2004).
Several values for one entry are separate records, joined by “and”; a condition that tells them apart may be missing. Equal values may be shown once. Inconclusive results and toxic doses are left out. Rule for the calls: active = survival T/C of 150% or more; inactive = T/C below 125% in these data.

Test system: CD2F1 mice, L1210 leukemia ip, survival T/C
Test: NCI In Vivo Anticancer Drug Screen. Data for tumor model L1210 Leukemia (intraperitoneal) in CD2F1 (CDF1) mice
Conditions: higher = longer survival
Outline: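 Mice carrying a transplanted tumor received test compound or vehicle alone. The value is the measurement in the treated group divided by that in the vehicle-treated control group.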

[1] = endpoint: mean survival time, dose: 400.0 mg/kg/injection, schedule: Q01DX009 (ip), vehicle: Klucel (hydroxypropylcellulose) (HPC)
[2] = endpoint: mean survival time, dose: 100.0 mg/kg/injection, schedule: Q04DX003 (ip), vehicle: saline with Tween-80
[3] = endpoint: mean survival time, dose: 200.0 mg/kg/injection, schedule: Q04DX003 (ip), vehicle: saline with Tween-80
[4] = endpoint: mean survival time, dose: 400.0 mg/kg/injection, schedule: Q04DX003 (ip), vehicle: saline with Tween-80
[5] = endpoint: mean survival time, dose: 50.0 mg/kg/injection, schedule: Q01DX009 (ip), vehicle: saline with Tween-80
[6] = endpoint: mean survival time, dose: 100.0 mg/kg/injection, schedule: Q01DX001 (ip), vehicle: saline with Tween-80
[7] = endpoint: mean survival time, dose: 100.0 mg/kg/injection, schedule: Q01DX009 (ip), vehicle: saline with Tween-80
[8] = endpoint: mean survival time, dose: 200.0 mg/kg/injection, schedule: Q01DX001 (ip), vehicle: saline with Tween-80
[9] = endpoint: mean survival time, dose: 200.0 mg/kg/injection, schedule: Q01DX009 (ip), vehicle: saline with Tween-80
[10] = endpoint: mean survival time, dose: 400.0 mg/kg/injection, schedule: Q01DX001 (ip), vehicle: saline with Tween-80
[11] = endpoint: mean survival time, dose: 12.5 mg/kg/injection, schedule: Q01DX009 (ip), vehicle: saline with Tween-80
[12] = endpoint: mean survival time, dose: 25.0 mg/kg/injection, schedule: Q01DX009 (ip), vehicle: saline with Tween-80
[13] = endpoint: mean survival time, dose: 400.0 mg/kg/injection, schedule: Q01DX009 (ip), vehicle: saline with Tween-80
[14] = endpoint: mean survival time, dose: 100.0 mg/kg/injection, schedule: Q01DX001 (ip), vehicle: saline
[15] = endpoint: mean survival time, dose: 200.0 mg/kg/injection, schedule: Q01DX001 (ip), vehicle: saline
[16] = endpoint: mean survival time, dose: 400.0 mg/kg/injection, schedule: Q01DX001 (ip), vehicle: saline

Measured: T/C

O=C1CN=C(c2ccccn2)c2cc(Br)ccc2N1
inactive: endpoint: mean survival time, dose: 100.0 mg/kg/injection, schedule: Q04DX003 (ip), vehicle: Klucel (hydroxypropylcellulose) (HPC) 95 % of control | endpoint: mean survival time, dose: 119.0 mg/kg/injection, schedule: Q01DX009 (ip), vehicle: Klucel (hydroxypropylcellulose) (HPC) 95 % of control | endpoint: mean survival time, dose: 187.0 mg/kg/injection, schedule: Q01DX009 (ip), vehicle: Klucel (hydroxypropylcellulose) (HPC) 100 % of control | endpoint: mean survival time, dose: 200.0 mg/kg/injection, schedule: Q04DX003 (ip), vehicle: Klucel (hydroxypropylcellulose) (HPC) 104 % of control | endpoint: mean survival time, dose: 266.0 mg/kg/injection, schedule: Q01DX009 (ip), vehicle: Klucel (hydroxypropylcellulose) (HPC) 95 % of control | [1] 94 % of control | endpoint: mean survival time, dose: 400.0 mg/kg/injection, schedule: Q04DX003 (ip), vehicle: Klucel (hydroxypropylcellulose) (HPC) 104 % of control | endpoint: mean survival time, dose: 600.0 mg/kg/injection, schedule: Q01DX009 (ip), vehicle: Klucel (hydroxypropylcellulose) (HPC) 95 % of control

CC(=O)OCC1OC(OC2C(COC(C)=O)OC(Sc3ccc(C)cc3)C(OC(C)=O)C2OC(C)=O)C(OC(C)=O)C(OC(C)=O)C1OC(C)=O (stereo not drawn)
inactive: [2] 97 % of control | [3] 91 % of control | [4] 94 % of control

CN(C)C/C(=N\Oc1ccc([N+](=O)[O-])cc1[N+](=O)[O-])c1ccc(Cl)cc1
inactive: [5] 91 % of control | [6] 98 % of control | [7] 88 % of control | [8] 102 % of control | [9] 91 % of control | [10] 95 % of control

O=C(/C(=N\Nc1ccc([N+](=O)[O-])cc1)c1ccccc1)c1ccccc1
inactive: [11] 96 % of control | [12] 88 % of control | [5] 88 % of control | [2] 97 % of control | [3] 97 % of control | [4] 101 % of control

Cc1ccc(S(=O)(=O)OCC(C)C)cc1
inactive: [7] 101 % of control | [9] 101 % of control | [13] 98 % of control

O=S1(=O)OCCCC1=C(c1ccccc1)c1ccccc1
inactive: endpoint: mean survival time, dose: 75.0 mg/kg/injection, schedule: Q01DX009 (ip), vehicle: saline 102 % of control | endpoint: mean survival time, dose: 75.0 mg/kg/injection, schedule: Q04DX003 (ip), vehicle: saline 101 % of control | endpoint: mean survival time, dose: 150.0 mg/kg/injection, schedule: Q01DX009 (ip), vehicle: saline 97 % of control | endpoint: mean survival time, dose: 150.0 mg/kg/injection, schedule: Q04DX003 (ip), vehicle: saline 94 % of control | endpoint: mean survival time, dose: 300.0 mg/kg/injection, schedule: Q01DX009 (ip), vehicle: saline 97 % of control | endpoint: mean survival time, dose: 300.0 mg/kg/injection, schedule: Q04DX003 (ip), vehicle: saline 97 % of control

NC(=S)N1N=C(c2cccc([N+](=O)[O-])c2)CCC1=O
inactive: [2] 111 % of control | [3] 111 % of control | [4] 107 % of control

O=C(O)CSc1ccccc1
inactive: endpoint: mean survival time, dose: 25.0 mg/kg/injection, schedule: Q04DX003 (ip), vehicle: other 98 % of control | endpoint: mean survival time, dose: 50.0 mg/kg/injection, schedule: Q04DX003 (ip), vehicle: other 98 % of control | endpoint: mean survival time, dose: 100.0 mg/kg/injection, schedule: Q04DX003 (ip), vehicle: saline 100 % of control | endpoint: mean survival time, dose: 200.0 mg/kg/injection, schedule: Q04DX003 (ip), vehicle: saline 98 % of control

CCOC(=O)c1cnn(C)c1N
inactive: [14] 103 % of control | [2] 102 % of control | [15] 103 % of control | [3] 102 % of control | [16] 97 % of control | [4] 104 % of control

O=C(O)C1C2CC(C1C(=O)O)C(C(=O)O)C2C(=O)O (stereo not drawn)
inactive: [6] 94 % of control | [7] 87 % of control | [8] 88 % of control | [9] 87 % of control | [10] 95 % of control

NS(=O)(=O)c1ccc(NC2OCC(O)C(O)C2O)cc1 (stereo not drawn)
inactive: endpoint: mean survival time, dose: 100.0 mg/kg/injection, schedule: Q01DX009 (ip), vehicle: saline 103 % of control | [2] 93 % of control | endpoint: mean survival time, dose: 200.0 mg/kg/injection, schedule: Q01DX009 (ip), vehicle: saline 104 % of control | [3] 98 % of control | endpoint: mean survival time, dose: 400.0 mg/kg/injection, schedule: Q01DX009 (ip), vehicle: saline 103 % of control | [4] 101 % of control

COc1ccc(OC)c(/C=C/c2ccnc3ccccc23)c1
inactive: endpoint: median survival time, dose: 50.0 mg/kg/injection, schedule: Q01DX009 (ip), vehicle: saline with Tween-80 102 % of control | endpoint: median survival time, dose: 100.0 mg/kg/injection, schedule: Q01DX009 (ip), vehicle: saline with Tween-80 101 % of control | endpoint: median survival time, dose: 200.0 mg/kg/injection, schedule: Q01DX009 (ip), vehicle: saline with Tween-80 108 % of control | endpoint: median survival time, dose: 400.0 mg/kg/injection, schedule: Q01DX009 (ip), vehicle: saline with Tween-80 113 % of control

Nc1ncnc2nc[nH]c12
inactive: endpoint: median survival time, dose: 70.0 mg/kg/injection, schedule: Q01DX009 (ip), vehicle: acid diluted with saline 98 % of control | endpoint: median survival time, dose: 70.0 mg/kg/injection, schedule: Q01DX009 (ip), vehicle: other 109 % of control | endpoint: median survival time, dose: 80.0 mg/kg/injection, schedule: Q01DX009 (ip), vehicle: acid diluted with saline 103 % of control | endpoint: median survival time, dose: 80.0 mg/kg/injection, schedule: Q01DX009 (ip), vehicle: other 112 % of control | endpoint: median survival time, dose: 90.0 mg/kg/injection, schedule: Q01DX009 (ip), vehicle: acid diluted with saline 101 % of control | endpoint: median survival time, dose: 90.0 mg/kg/injection, schedule: Q01DX009 (ip), vehicle: other 106 % of control

CCCCNC(=O)Nc1cccc2c(O)cccc12
inactive: endpoint: mean survival time, dose: 50.0 mg/kg/injection, schedule: Q01DX009 (ip), vehicle: DMSO 97 % of control

O=C1C=CC(=Nc2ccc(O)cc2)O1
inactive: endpoint: mean survival time, dose: 5.0 mg/kg/injection, schedule: Q01DX009 (ip), vehicle: saline with Tween-80 100 % of control | endpoint: mean survival time, dose: 10.0 mg/kg/injection, schedule: Q01DX009 (ip), vehicle: saline with Tween-80 94 % of control | endpoint: mean survival time, dose: 20.0 mg/kg/injection, schedule: Q01DX009 (ip), vehicle: saline with Tween-80 104 % of control

Cc1cc(C2(c3ccc(O)c(C)c3)CCCCC2)ccc1O
inactive: [6] 97 % of control | endpoint: mean survival time, dose: 100.0 mg/kg/injection, schedule: Q01DX009 (ip), vehicle: Klucel (hydroxypropylcellulose) (HPC) 95 % of control | [8] 94 % of control | endpoint: mean survival time, dose: 200.0 mg/kg/injection, schedule: Q01DX009 (ip), vehicle: Klucel (hydroxypropylcellulose) (HPC) 94 % of control | [10] 96 % of control | [1] 94 % of control

COC1(O)C(=O)c2ccccc2OC1(OC)c1ccc(C)cc1 (stereo not drawn)
inactive: endpoint: mean survival time, dose: 50.0 mg/kg/injection, schedule: Q01DX001 (ip), vehicle: saline 102 % of control | [14] 98 % of control | [15] 96 % of control | [16] 98 % of control

CCOC(=O)Nc1cc(NC(=O)OCC)cc([N+](=O)[O-])c1
inactive: [7] 98 % of control | [9] 98 % of control | [13] 106 % of control

N#CCCC1(CCC#N)c2ccccc2-c2ccccc21
inactive: [2] 95 % of control | [3] 100 % of control | [4] 105 % of control

O=C(Nc1cccc(I)c1)OCCCl
inactive: endpoint: mean survival time, dose: 100.0 mg/kg/injection, schedule: Q04DX002 (ip), vehicle: saline with Tween-80 89 % of control | endpoint: mean survival time, dose: 200.0 mg/kg/injection, schedule: Q04DX002 (ip), vehicle: saline with Tween-80 92 % of control | endpoint: mean survival time, dose: 400.0 mg/kg/injection, schedule: Q04DX002 (ip), vehicle: saline with Tween-80 92 % of control

O=CNc1ccccc1
inactive: [7] 97 % of control | [9] 105 % of control | [13] 115 % of control

COc1ccc2c(c1)CCC1C2=CC(=O)/C1=C\[O-].COc1ccc2c(c1)CCC1C2=CC(=O)/C1=C\[O-].[Cu+2] (stereo not drawn)
inactive: [11] 92 % of control | endpoint: mean survival time, dose: 12.5 mg/kg/injection, schedule: Q04DX003 (ip), vehicle: saline with Tween-80 93 % of control | [12] 95 % of control | endpoint: mean survival time, dose: 25.0 mg/kg/injection, schedule: Q04DX003 (ip), vehicle: saline with Tween-80 93 % of control | [5] 94 % of control | endpoint: mean survival time, dose: 50.0 mg/kg/injection, schedule: Q04DX003 (ip), vehicle: saline with Tween-80 96 % of control

CC(=O)OCC1(C)NC(=O)c2ccccc2O1 (stereo not drawn)
inactive: [11] 93 % of control and 112 % of control | [12] 93 % of control and 101 % of control | [5] 98 % of control and 103 % of control | [7] 118 % of control and 100 % of control | [9] 95 % of control and 106 % of control | [13] 115 % of control

COC1OC(COC(=O)c2ccccc2)C2OC(=O)OC12 (stereo not drawn)
inactive: [2] 93 % of control | [3] 90 % of control | [4] 102 % of control

Fc1c(F)c(F)[c]([Ge]([c]2c(F)c(F)c(F)c(F)c2F)([c]2c(F)c(F)c(F)c(F)c2F)[c]2c(F)c(F)c(F)c(F)c2F)c(F)c1F
inactive: [7] 97 % of control | [2] 86 % of control | [9] 92 % of control | [3] 91 % of control | [13] 91 % of control | [4] 93 % of control
